Key:
[1] = test system: murine bone marrow-derived macrophages; test: area under cytotoxicity dose-response curve (AUC (% cytotoxicity x dose, relative)); higher = more cytotoxic; settings: duration: 6 days; dose range: 0.13-80 uM, 8 points
How it was run: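 An 8-point, 2.5-fold dilution series (final 80–0.13 μM) was applied for 6 days at 37 °C in 5% CO2 to primary murine bone marrow-derived macrophages plated in opaque 384-well plates. Promega's CellTiter-Glo luminescence assay measured viability, and percent cytotoxicity was normalised against vehicle and positive control wells. The area under the dose–response curve, worked out in GraphPad Prism version 10, is the reported cytotoxicity measure.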

[2] = test system: Mycobacterium tuberculosis CDC1551 (intracellular, in murine BMDM); test: area under intracellular growth-inhibition dose-response curve (AUC (% inhibition x dose, relative)); higher = more potent; settings: duration: 6 days; dose range: 0.13-80 uM, 8 points
How it was run: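 Each value is an area under the growth-inhibition dose–response curve, calculated with GraphPad Prism. Infected primary murine bone marrow-derived macrophages, carrying luciferase-expressing M. tuberculosis CDC1551 at multiplicity of infection 1, were treated for 6 days with an 8-dose, 2.5-fold series (final 80–0.13 μM) in 384-well opaque plates. Readout was by Bright-Glo luciferin assay, normalised to a reference drug control and the lowest-concentration wells.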

Compound	area under cytotoxicity dose-response curve [1]	area under intracellular growth-inhibition dose-response curve [2]
CC1CCN(c2ccc(NC(=O)c3ccc([N+](=O)[O-])o3)cc2)CC1.Cl	90.4	56.1
CCc1cccc2sc(N3CCN(C(=O)c4ccc([N+](=O)[O-])o4)CC3)nc12	85.8	71.9
CC(=O)n1cc(/C=N/NC(N)=S)c2ccccc21	< 0	273
O=C(c1cc2ccccc2o1)N1CCN(Cc2ccc3c(c2)OCO3)CC1	68.3	172
C/C(Cn1cnc([N+](=O)[O-])n1)=N\NC(=O)c1ccncc1	39.4	249
O=C(/C=C/c1cn(CC(O)CN2CCCCCC2)c2ccccc12)c1cccs1 (centres undefined)	< 0	96.5
CC(NC(=O)c1ccccc1)c1ccc(F)cc1 (centres undefined)	< 0	265
O=C(N/N=C/c1cccc2ccccc12)c1ccncc1	67.8	262
COc1cc(/C=N/NC(N)=S)ccc1OCc1ccc(C)cc1	30.4	255
O=C(NC1CCCCCCC1)c1ccc(F)cc1	16.9	180
CCCc1cc(C(N)=S)ccn1	8.35	215
CC(=O)/C=C(\C)Nc1ccccc1O	95	54.6
Cc1cc2oc(=O)cc(-c3ccccc3)c2c(C)c1-c1ccc(CO)cc1	< 0	271
C[C@@H]1C2CC(C/C2=N\NC(=O)c2ccncc2)C1(C)C (some centres undefined)	< 0	260
Cn1nc(C(=O)OCC(=O)NCc2ccc(Cl)cc2)c2ccccc2c1=O	4.5	83
COc1cc(/C=N/NC(=O)c2ccncc2)ccc1OC(=O)c1cccc(F)c1	88.7	111

Compound	area under cytotoxicity dose-response curve [1]	area under intracellular growth-inhibition dose-response curve [2]
Nc1ccc(C(=O)[O-])c(O)c1.[Na+]	27.5	182
Cc1ccc(C(=O)NCc2ccc(Cl)cc2)o1	15.1	263
O=C(NCC1CCCCC1)c1ccc(Cl)nc1	2.72	258
Nc1nc(Cl)nc2c1ncn2[C@@H]1O[C@H](CO)[C@@H](O)[C@H]1O	81.9	205
O=C(N/N=C/c1ccc([N+](=O)[O-])o1)C(O)c1ccccc1 (centres undefined)	72.7	123
N#CCCn1cc(/C=N/NC(=O)c2ccncc2)c(-c2ccccc2)n1	< 0	247
CCC(=O)N1NC(=C2C(=O)N(C)C(=O)N(C)C2=O)CC1c1ccccc1 (centres undefined)	23.3	122
Cc1ccccc1OCCC(=O)NNC(=O)c1ccccc1F	17.3	106
O=[N+]([O-])c1ccc(/C=N/Nc2nc(N3CCCCC3)nc(N3CCCCC3)n2)o1	< 0	226
CC(=O)c1ccc(NC(=S)Nc2ccc(N3CCOCC3)cc2)cc1.Cl	40.4	260
CC(C)/N=c1\cc2n(-c3ccc(Cl)cc3)c3ccccc3nc-2cc1Nc1ccc(Cl)cc1	73.5	208
CC(NC(=O)c1ccc(F)cc1)C1CC2CCC1C2 (centres undefined)	238	168
O=C(N/N=C/C=C\c1ccccc1[N+](=O)[O-])c1ccncc1	5.73	260
CNc1nc(N2CCc3ccccc32)ncc1F	< 0	140
CC(=O)c1cccc(NC(=O)NC2CCCCCCC2)c1	36.2	244
O=C(COc1ccc(/C=N/NC(=O)c2ccncc2)cc1)Nc1ccccc1	34.4	266

— the supplement of paper PMC11997997
